In patent US10588921B2, “Drug for the treatment of cholesterol accumulation disorders” (NATIONAL UNIVERSITY CORPORATION KUMAMOTO UNIVERSITY, priority 2013, dated 2020):
Entries after “also recorded” stand apart in the source; their conditions may differ.

Tests used:
[1] = test system: NPC-derived HLCs; format: cell-based, human
Protocol: For hepatocyte-like cell (HLC) induction, the culture medium of semi-confluent human iPS cells were switched from the iPS medium to the definitive endoderm differentiation medium containing RPMI1640 supplemented with 2% B27 (Life technologies), 100 ng/m1 Activin A and 1 mM Sodium butyrate (NaB, SIGMA). The NaB concentration is changed in 0.5 mM on day 2. On day 4, the cells were harvested and re-seeded onto Matrigel-coated dishes in hepatic differentiation medium containing DMEM supplemented with 20% KSR, 1 mM glutamine, 1 mM NEAA, 0.1 mM 2-mercaptoethanol (SIGMA), 1% Dimethyl sulfoxide (DMSO, SIGMA). CXCR4 expressions were examined by FACS on day 4. On day 11, the cells were harvested and re-cultured in the hepatic maturation medium containing L15 medium (SIGMA) supplemented with 8.3% FBS, 8.3% tryptose phosphate broth (SIGMA), 10 mM hydrocortisone 21-hemisuccinate (SIGMA), 1 mM insulin (SIGMA), 2 mM glutamine, lOng/ml Hepatocyte growth factor (HGF, R & D) and 20 ng/ml Oncostatin M (OSM, R & D). On day 18, the cells were used for various experiments. For the hydroxypropyl cyclodextrin treatments, HLCs were cultured with 0.1 mM or 1 mM of the hydroxypropyl cyclodextrins for four days. For Annexin and TUNEL stainings, HLCs are cultured for four days and a week from day 18, respectively.
(§1) Alkaline phosphatase staining was performed using the Leukocyte Alkaline Phosphatase kit (SIGMA). For immunocytochemistry, cells were fixed with PBS containing 4% paraformaldehyde for 30 min at 4° C. For the molecules localized in nucleus, samples were treated with 0.2% Triton X-100 for 15 min at room temperature (RT). The cells were washed three times with PBS containing 2% FBS and then incubated overnight at 4° C. in PBS containing 2% FBS with primary antibodies. Nucleuses were stained with Propidium Iodide (PI, WAKO, Japan) and 1 mg/ml Hoechst 33258 (Invitrogen). The list of the primary and secondary antibodies is described in Table 3. For Filipin staining, samples were washed with PBS three times after the fixing and incubated with PBS containing 1.5 mg/ml glycine for 10 min at RT. The samples were then treated with PBS containing 10% FBS and 50 mg/ml Filipin (SIGMA). The data was calculated by UV absorption (360/460) and analyzed with Developer Toolbox software of IN CELL ANALYZER 6000 (GE Healthcare). The number of insoluble p62 granules were counted by IN CELL ANALYZER 6000 (GE Healthcare). To investigate glycogen accumulation, Periodic acid Schiff (PAS) staining of hepatocyte-like cells were performed by PAS staining solution (Muto Pure chemicals, Tokyo, Japan), according to the manufacturer's protocol.
The inventors therefore treated the HLCs derived from normal and NPC-iPS cell lines with a series of 2-hydroxypropyl-cyclodextrins with different cavity sizes, and observed effect of a series of hydroxypropyl-cyclodextrins. HLCs were cultured with 1 mM of the indicated hydroxypropyl-cyclodextrin for 4 days, stained with filipin and analyzed with an IN CELL ANALYSER (GE Healthcare) (FIG. 18).
(§2) The size of HLCs is decreased by the treatments with HPBCD and HPGCD (data not shown). Effects of various concentration of HPBCD and HPGCD in NPC-derived HLCs was observes. HLCs were cultured with HPBCD or HPGCD for 4 days, stained with filipin and analyzed with an IN CELL ANALYSER (GE Healthcare).

[2] = test system: NPC-derived HLCs; experiment: Cell size of HLCs; format: cell-based, human; settings: data not shown
Protocol: The cell sizes of albumin-positive cells was calculated by Developer Toolbox software of IN CELL ANALYZER 6000 (GE Healthcare).
as §2

[3] = test system: NPC-derived HLCs; experiment: Measurement of ATP in HLCs; format: cell-based, human; settings: 1 mM HPCD, 4 days; FIG. 21
Protocol: Hepatocyte-like cells derived from the iPSC lines were cultured in DMEM medium in the absence of glucose for 24 hours and were then cultured in the DMEM medium containing 10% FBS and high glucose for 6 hours. ATP was measured by ATP measurement Kit (TOYO INK), according to the manufacturer's protocol.
(§3) HLCs were culture with 1 mM 2-hydroxypropylcyclodextrins (HPCDs) for 4 days, and ATP level, expression levels of LC3 and p62, and insoluble p62 granules were measured.

[4] = test system: LC3; experiment: Immunoblot of LC3 expression in HLCs; format: cell-based, human; settings: 1 mM HPCD, 4 days; FIG. 22
Protocol: (§4) Protein lysates were separated by SDS-PAGE and transferred to PVDF membrane. LC3-I and LCS3-II were detected by anti-LC3 antibody (Cell Signaling). The data are normalized to α-tubulin expression. The HLCs were solved in RIPA buffer and then insoluble p62 was collected as a pellet after the centrifuge of the samples.
as §3

[5] = test system: p62; experiment: Immunoblot of insoluble p62 in HLCs; format: cell-based, human; settings: 1 mM HPCD, 4 days; FIG. 23
Protocol: as §4, §3

[6] = test system: p62; experiment: Count of insoluble p62 granules in HLCs (IN CELL ANALYZER); format: cell-based, human; settings: 1 mM HPCD, 4 days; FIG. 24
Protocol: as §1, with “To investigate glycogen accumulation, Periodic acid Schiff (PAS) staining of hepatocyte-like cells were performed by PAS staining solution (Muto Pure chemicals, Tokyo, Japan), according to the manufacturer's protocol.” left out
as §3

[7] = test system: NPC model mice; experiment: HPGCD treatment of NPC model mice (serum markers, histology, autophagy); format: in vivo, mouse
Protocol: Effects of HPGCD treatment on cholesterol accumulation in NPC-derived HLCs were evaluated using NPC-model mice. NPC model mice bear a spontaneous mutation of the Npc1 gene that causes a defect in lysosome to ER trafficking of cholesterol. […] The model mice show liver injury and neural functional impairment and die before 12 weeks old without proper treatment.
4-week-old NPC mice were treated with HPGCD (4000 mg/kg) once a week until 8.5 weeks of age (5 injections in total), followed by sample collection. Control was treated with saline. The experiments were conducted twice (first; n=6; second: n=4).

[8] = test system: NPC model mice; experiment: Survival of NPC model mice; format: in vivo, mouse; settings: 4-week-old model mice injected once a week; FIG. 33
Protocol: To evaluate the effect of HPGCD treatment on NPC mice survival, 4-week-old model mice were injected with HPGCD one a week (HPGCD injection group: n=6, control (saline injection) group: n=6).

[9] = test system: normal mice; experiment: Acute toxicity test in normal mice; format: in vivo, mouse; settings: 14.4 mM, 19.18 ml/g subcutaneous, 8-week-old normal mice; FIG. 34
Protocol: To confirm the excellent safety of HPGCD, acute toxicity was tested using normal mice. 14.4 mM HPBCD or HPGCD were injected in the amount of 19.18 ml/g into subcutaneous tissues of 8-week-old mice (n=10), and then survival rates were calculated.

[10] = test system: isolated erythrocyte; settings: in vitro; cited from earlier work
[11] = test system: cultured cells; settings: Non-Patent Document 5; cited from earlier work
[12] = 4000 mg/kg once a week from 4 to 8.5 weeks of age, FIG. 30

For 2-hydroxypropyl-γ-cyclodextrin [HPGCD], the “activity on hepatocyte-like cells differentiation-induced from NPC patient-derived iPS cells” value [1] was “equal to or more than that of HPBCD”, the “cholesterol accumulated in hepatocyte-like cells derived from NPC” value [1] was “removed cholesterol accumulated in hepatocyte-like cells derived from NPC” and the “function of the hepatocyte-like cells” value [1] was “recovered the function of the hepatocyte-like cells”. For the same substance, the “cholesterol accumulation in NPC-HLCs (filipin staining)” value ([1]; 1 mM hydroxypropyl-cyclodextrin, 4 days, FIG. 18) was “reduced the cholesterol accumulation in NPC-HLCs to the same extent as that observed for HPBCD”, the “cholesterol accumulation in NPC-derived HLCs (filipin staining)” value ([1]; low concentration 100 μM, 4 days, FIG. 19) was “ineffective for reducing cholesterol accumulation” and the “size of HLCs” value [2] was “decreased”. The ATP level [3] was “recovered”, the “expression level of LC3” value [4] was “recovered to normal levels” and the “amount of insoluble p62” value [5] was “reduced the amount of insoluble p62”. The “proportion of HLCs carrying more than 40 granules of insoluble p62 aggregation” value [6] was “greatly reduced”, the “ALT (alanine aminotransferase), serum marker for liver injury” value [7, 12] was “markedly and significantly reduced” and the “AST (aspartate aminotransferase), serum marker for liver injury” value [7, 12] was “markedly and significantly reduced”. For the same substance, the “histological analysis of livers” value ([7]; 4000 mg/kg once a week, FIG. 31) was “marked morphological improvement”, the “deletion of Purkinje cells in the cerebellum” value ([7]; 4000 mg/kg once a week, FIG. 32) was “rescued; also recorded: restored” and the “abnormal autophagy in NPC mice” value ([7]; data not shown) was “restored”. For the same substance, the “expression level of LC3 in livers and brains” value ([7]; data not shown) was “restored to the normal level”, the “expression level of insoluble p62 in livers and brains” value ([7]; data not shown) was “restored to the normal level” and the NPC mouse survival [8] was “significantly prolonged”. For the same substance, the “survival after injection (acute toxicity)” value [9] was “no mice dies”, the “hemolytic activity (order)” value [10] was “HPBCD>HPACD>HPGCD” and the cholesterol dissolution activity [11] was “a several tenth part or less, compared with that of HPBCD”.
